Measurements from US20220089636A1, “TETRAZOLONE SUBSTITUTED STEROIDS AND USE THEREOF” (Beijing Xuanyi PharmaSciences Co., Ltd., priority 2019, published 2022).
Where two headings read alike, the source gives them in different places.

Legend:
[1] = Mouse PK study (i.v. and p.o.); assay type: in vivo; conditions: plasma, male CD1 mice; for half-life: read-out: T1/2 (hr) i.v. (converted); for Vd: read-out: Vss; for bioavailability: 5 mg/kg p.o. vs 1 mg/kg i.v.
Experimental: Test compounds were dosed to male CD1 mice at 5 mg/kg by oral gavage (p.o.) or 1 mg/kg by intravenous injection (i.v.). Blood samples were taken at 0.083, 0.25, 0.5, 1.0, 3.0, 6.0 and 24 hours post i.v. dosing and at 0.25, 0.5, 1.0, 3.0, 6.0 and 24 hours post p.o. dosing. The plasma concentration of compounds were determined by HPLC.

PTZ-treated mice = test: Acute PTZ (pentylenetetrazol-induced seizure) assay; assay type: in vivo, Male CD-1 mice; conditions: 3 mg/kg oral gavage 60 min prior to PTZ 120 mg/kg s.c.; observed 30 min
Experimental: The anticonvulsant effect of test compounds were assessed in the pentylenetetazol-induced seizure assay in mice similar to methods described in Giardina & Gasior (2009) Curr Protoc Pharmacol., Chapter 5. Male CD-1 mice were housed in groups of five under controlled conditions (temperature of 22±2° C. and 12:12 light-dark cycle, lights on at 8:00 am) and water and food were available ad libitum. The mice were housed for 1 week prior to behavioral testing, at which time they weighed 25-35 g. Pentylenetetrazol (PTZ, Sigma) was dissolved in sterile 0.9% saline at a concentration of 12 mg/mL concentration for subcutaneous administration. Test compounds were formulated and administered via oral gavage at 60 minutes prior to PTZ injection. AU solutions were made fresh and were given in a volume of 10 ml/kg body weight.
Mice were acclimated to the test room for at least 30 min before compound administration. Mice were randomized into at least four test groups (vehicle and at least three doses of the test compound) with 10 mice per group. […] Following the drug pretreatment time, the mice were injected s.c. with PTZ (120 mg/kg). Immediately following the PTZ injection, mice were individually placed into observation chambers (25×15×15 cm) and a three-channel timer was started. Each mouse was continuously observed for 30 min and the following behaviors were recorded by observers blinded to the treatments: 1) latency to clonic convulsions that persist for 3 sec and followed by an absence of righting reflex 2) latency to tonic convulsions, characterized by the rigid extension of all four limbs that exceeded a 90 degree angle with the body 3) latency to death 4) number of clonic and tonic convulsions. Data are presented as mean±S.E.M and one-way analysis of variance with Dunnetfs or Bonferroni's post-hoc test was used to detect significant differences in latency and number between the vehicle and dose group, p values<0.05 were regarded as statistically significant.

α1β2γ2 GABAA receptor = target: T1, α1β2γ2 GABAA receptor (Homo sapiens, UniProt P14867+P47870); test: Patch clamp electrophysiology assay of recombinant α1β2γ2 GABAA receptors (potentiation of 2 μM GABA-evoked Cl- current); assay type: cell-based; conditions: HEK293T cells stably transfected with α1β2γ2 GABAA; for EC50: whole cell, 2 μM GABA, -80 mV
T1 construct: expressed in transfected cells
Experimental: Cellular electrophysiology is used to measure the pharmacological properties of GABAA receptor modulators in heterologous cell systems. Each compound is tested for its ability to affect GABA mediated currents at a submaximal agonist dose (GABA EC20=2 μM). HEK293T cells are stably transfected with the α1β2γ2 subunits of the GABAA receptor. Flasks or dishes of HEK293 GABAA cells were maintained in the medium (DMEM, 11% (v/v) heat inactivated FBS, 100 or 200 μg/ml G418, 40 μg/ml Hygromycin B, 80 μg/ml Zeocin) and incubated at 37° C. in a humidified incubator with 5% CO2. 12 to 24 hours prior to electrophysiological recordings, the cells were plated on glass cover slips placed in culture dishes and maintained under the same incubation and media conditions. The number of cells being plated on the cover slip should reach a confluence rate at which majority of the cells are single.
For the electrophysiological recordings in the study the following external and internal solutions were used (Table 1):
HEKA EPC 10 USB patch clamp amplifier (from HEKA Elektronik, Germany) was used in the whole cell recording. A cover slip with plenty of single HEK293T-GABAA cells on the surface was removed and placed into a continuously perfused (approximately 1-2 ml/minute) recording chamber mounted on an inverted microscope. GABAA Cl^− current was recorded from single cell using standard whole cell recording techniques. 2 μM GABA was used to evoke GABAA Cl^− current (2 μM of GABA was the EC10-EC20 value of agonist GABA obtained internally on the stable GABAA cells used in this study). After achieving break-in (whole-cell) configuration, the cell was voltage clamped at a holding potential of −80 mV. Only stable cells meeting the recording parameters (membrane resistance Rm>500 MΩ, access resistance (Ra)<15 MΩ, leak current<100 pA in 90% of the recording time) were used. 2 μM GABA was applied to the cell to induce stable Cl^− current first as control for about 2 seconds, test compounds (i.e., compounds of formula (AI), (I), (AII), and (II), or any subgenera thereof) were followed to be applied to the cells for 3 min, then 2 μM GABA was applied to observe the potentiation effect on the GABAA Cl^− current. Different doses of test compound from low to high were applied to the same cell when the cell was stable. A cell was considered stable when current size evoked by 2 μM GABA applied to the cell from time to time was similar. To minimize the possible desensitation of GABAA Cl^− current, duration between applications of test articles was set to 180 seconds.
Test compounds were dissolved in DMSO to form stock solutions (10 mM). Test compounds were diluted to 0.003, 0.01, 0.03, 0.1, 0.3, 1, 3 and 10 μM in bath solution. AU concentrations of test articles were tested on each cell. Data were analyzed using software provided by HEKA, Microsoft Excel and Graphpad Prism (Table 2).

[2] = iv, 1 mg/kg i.v., read-out: AUClast (hr*ng/mL) i.v.
[3] = po, 5 mg/kg p.o., read-out: AUClast (hr*ng/mL) p.o.

T1 sequence (P14867 28-456): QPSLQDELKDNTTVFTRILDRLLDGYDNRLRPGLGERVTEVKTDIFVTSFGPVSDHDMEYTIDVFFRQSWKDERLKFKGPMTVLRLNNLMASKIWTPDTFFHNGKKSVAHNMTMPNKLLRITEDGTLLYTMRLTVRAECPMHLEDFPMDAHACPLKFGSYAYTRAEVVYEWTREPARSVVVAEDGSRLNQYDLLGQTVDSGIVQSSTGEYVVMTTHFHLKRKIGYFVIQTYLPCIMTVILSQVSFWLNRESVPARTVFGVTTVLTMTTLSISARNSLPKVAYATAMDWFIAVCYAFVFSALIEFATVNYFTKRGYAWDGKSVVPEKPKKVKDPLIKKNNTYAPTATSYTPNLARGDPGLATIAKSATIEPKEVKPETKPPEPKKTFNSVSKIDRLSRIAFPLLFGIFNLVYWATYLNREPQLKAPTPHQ
T1 sequence (P47870 25-512 limits assumed): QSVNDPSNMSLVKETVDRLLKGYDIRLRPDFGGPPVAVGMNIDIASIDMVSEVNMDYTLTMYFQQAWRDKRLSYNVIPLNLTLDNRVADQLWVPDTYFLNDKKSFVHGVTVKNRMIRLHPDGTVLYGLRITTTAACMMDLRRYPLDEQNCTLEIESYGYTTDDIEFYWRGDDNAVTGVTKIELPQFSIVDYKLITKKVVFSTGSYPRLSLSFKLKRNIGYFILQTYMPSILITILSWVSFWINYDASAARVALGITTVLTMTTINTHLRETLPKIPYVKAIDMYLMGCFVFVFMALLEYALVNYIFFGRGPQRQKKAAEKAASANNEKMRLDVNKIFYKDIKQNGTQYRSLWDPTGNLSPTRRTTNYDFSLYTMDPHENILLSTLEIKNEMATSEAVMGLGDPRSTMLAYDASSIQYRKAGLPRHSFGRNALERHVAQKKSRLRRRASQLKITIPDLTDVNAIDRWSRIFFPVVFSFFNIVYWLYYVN
T1 sequence (P18507 40-475 partner): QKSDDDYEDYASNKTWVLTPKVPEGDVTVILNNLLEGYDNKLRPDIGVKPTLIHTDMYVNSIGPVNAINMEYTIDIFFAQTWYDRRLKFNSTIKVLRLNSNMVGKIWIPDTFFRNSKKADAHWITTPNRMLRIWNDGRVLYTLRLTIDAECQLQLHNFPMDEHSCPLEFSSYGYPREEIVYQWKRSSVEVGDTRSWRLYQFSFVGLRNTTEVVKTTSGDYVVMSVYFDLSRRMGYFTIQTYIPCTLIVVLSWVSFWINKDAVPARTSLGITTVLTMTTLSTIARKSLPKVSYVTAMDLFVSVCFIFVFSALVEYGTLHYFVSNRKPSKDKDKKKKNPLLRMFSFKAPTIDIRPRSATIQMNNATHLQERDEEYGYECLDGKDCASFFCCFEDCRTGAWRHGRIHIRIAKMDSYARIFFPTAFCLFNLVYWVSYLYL

Row | Compound | clearance ([1]; iv, 1 mg/kg i.v.) | AUC(0-t) [1, 2] | half-life ([1]; iv, 1 mg/kg i.v.) | Vd ([1]; iv, 1 mg/kg i.v.) | Cmax ([1]; po, 5 mg/kg p.o.) | Tmax ([1]; po, 5 mg/kg p.o.) | bioavailability ([1]; po) | AUC(0-t) [1, 3] | Clonic Seizure Latency (sec) (Mean) (PTZ-treated mice) | Clonic Seizure Number (Mean) (PTZ-treated mice) | Mortality (%) (PTZ-treated mice) | Onset of death (sec) (Mean) (PTZ-treated mice) | Tonic Seizure Latency (sec) (Mean) (PTZ-treated mice) | Tonic Seizure Number (Mean) (PTZ-treated mice) | EC50 (α1β2γ2 GABAA receptor) | Emax (α1β2γ2 GABAA receptor; HEK-293T, potentiation of 2 μM GABA current)
1 | Cn1nnn(CC(=O)[C@H]2CC[C@H]3[C@@H]4CC[C@@H]5C[C@](C)(O)CC[C@@H]5[C@H]4CC[C@]23C)c1=O [Example 2, 1-(2-((3R,5R,8R,9R,10S,13S,14S,17S)-3-hydroxy-3,13-dimethylhexadecahydro-1H-cyclopenta[a]phenanthren-17-yl)-2-oxoethyl)-4-methyl-1,4-dihydro-5H-tetrazol-5-one] | 10.7 mL/min/kg | 1480 ng·h/mL | 1.46 h | 1.16 L/kg | 1380 ng/mL | 1 h | 66.3% | 4900 ng·h/mL | 1085.4 ± 184.6 s | 0.7 ± 0.2 | 0.0% | 1800 + 0.0 sec | 1800 + 0.0 sec | 0.0 + 0.0 | 110 nM | –
2 | C[C@@]1(O)CC[C@H]2[C@H](CC[C@@H]3[C@@H]2CC[C@]2(C)[C@@H](C(=O)Cn4nnn(-c5ccncc5)c4=O)CC[C@@H]32)C1 [Example 17, 1-(2-((3R,5R,8R,9R,10S,13S,14S,17S)-3-hydroxy-3,13-dimethylhexadecahydro-1H-cyclopenta[a]phenanthren-17-yl)-2-oxoethyl)-4-(pyridin-4-yl)-1,4-dihydro-5H-tetrazol-5-one] | 43.5 mL/min/kg | 381 ng·h/mL | 0.84 h | 2.12 L/kg | 227 ng/mL | 3 h | 101% | 1930 ng·h/mL | 1441 + 184.6 sec | 0.3 ± 0.2 | 0.0% | 1800 + 0.0 sec | 1800 + 0.0 sec | 0.0 + 0.0 | 38 nM | –
3 | C[C@@]1(O)CC[C@H]2[C@H](CC[C@@H]3[C@@H]2CC[C@]2(C)[C@@H](C(=O)Cn4nnn(-c5ccc(C#N)cc5)c4=O)CC[C@@H]32)C1 [Example 13, 4-(4-(2-((3R,5R,8R,9R,10S,13S,14S,17S)-3-hydroxy-3,13-dimethylhexadecahydro-1H-cyclopenta[a]phenanthren-17-yl)-2-oxoethyl)-5-oxo-4,5-dihydro-1H-tetrazol-1-yl)benzonitrile] | 5.67 mL/min/kg | 2640 ng·h/mL | 8.03 h | 2.94 L/kg | 479 ng/mL | 1 h | 41.5% | 5760 ng·h/mL | 1012 + 263.6 sec | 0.7 ± 0.3 | 0.0% | 1800 + 0.0 sec | 1800 + 0.0 sec | 0.0 + 0.0 | 13 nM | –
4 | C[C@@]1(O)CC[C@H]2[C@H](CC[C@@H]3[C@@H]2CC[C@]2(C)[C@@H](C(=O)Cn4nnn(-c5ccccc5)c4=O)CC[C@@H]32)C1 [Example 10, 1-(2-((3R,5R,8R,9R,10S,13S,14S,17S)-3-hydroxy-3,13-dimethylhexadecahydro-1H-cyclopenta[a]phenanthren-17-yl)-2-oxoethyl)-4-phenyl-1,4-dihydro-5H-tetrazol-5-one] | 9 mL/min/kg | 1840 ng·h/mL | 4.22 h | 2.16 L/kg | 491 ng/mL | 3 h | 60.5% | 5510 ng·h/mL | 1485 + 210.2 sec | 0.3 ± 0.2 | 0.0% | 1800 + 0.0 sec | 1800 + 0.0 sec | 0.0 + 0.0 | 27 nM | –
5 | C[C@@]1(O)CC[C@H]2[C@H](CC[C@@H]3[C@@H]2CC[C@]2(C)[C@@H](C(=O)Cn4nnn(-c5ccc(F)cc5)c4=O)CC[C@@H]32)C1 [Example 11, 1-(4-fluorophenyl)-4-(2-((3R,5R,8R,9R,10S,13S,14S,17S)-3-hydroxy-3,13-dimethylhexadecahydro-1H-cyclopenta[a]phenanthren-17-yl)-2-oxoethyl)-1,4-dihydro-5H-tetrazol-5-one] | 13.5 mL/min/kg | 1230 ng·h/mL | 3.9 h | 2.42 L/kg | 274 ng/mL | 1 h | 52.3% | 3200 ng·h/mL | 717.4 ± 238.5 s | 0.8 ± 0.2 | 0.0% | 1800 + 0.0 sec | 1800 + 0.0 sec | 0.0 + 0.0 | 44 nM | 795%
6 | COc1ccc(-n2nnn(CC(=O)[C@H]3CC[C@H]4[C@@H]5CC[C@@H]6C[C@](C)(O)CC[C@@H]6[C@H]5CC[C@]34C)c2=O)cc1 [Example 15, 1-(2-((3R,5R,8R,9R,10S,13S,14S,17S)-3-hydroxy-3,13-dimethylhexadecahydro-1H-cyclopenta[a]phenanthren-17-yl)-2-oxoethyl)-4-(4-methoxyphenyl)-1,4-dihydro-5H-tetrazol-5-one] | 30 mL/min/kg | 542 ng·h/mL | 1.05 h | 1.76 L/kg | 106 ng/mL | 1 h | 10.8% | 292 ng·h/mL | – | – | – | – | – | – | 5 nM | –
7 | CC(C)n1nnn(CC(=O)[C@H]2CC[C@H]3[C@@H]4CC[C@@H]5C[C@](C)(O)CC[C@@H]5[C@H]4CC[C@]23C)c1=O [Example 4, 1-(2-((3R,5R,8R,9R,10S,13S,14S,17S)-3-hydroxy-3,13-dimethylhexadecahydro-1H-cyclopenta[a]phenanthren-17-yl)-2-oxoethyl)-4-isopropyl-1,4-dihydro-5H-tetrazol-5-one] | 24.8 mL/min/kg | 659 ng·h/mL | 0.54 h | 0.88 L/kg | 808 ng/mL | 0.25 h | 25.8% | 782 ng·h/mL | – | – | – | – | – | – | 140 nM | –
